Reference: patent US20240409536A1, “COMPOUNDS AND METHODS FOR MODULATING SPLICING” (REMIX THERAPEUTICS INC., priority 2021, published 2024)
Counter-ions that a name gives are not always drawn.

How the values were obtained:
MYB mRNA = assay: Splicing RT-qPCR assay, MYB canonical (CJ) and alternative (AJ) junction mRNA; type: cell-based; settings: Homo sapiens, A673 or K562 cells, 24 hours; for IC50: decrease in canonical junction mRNA; for AC50: increase in alternative junction mRNA
Outline: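 RT-qPCR read-out: CJ and AJ junction isoforms quantified from cell lysates, normalized to housekeeping GAPDH/GUSB (K562) or PPIA (A673). Cells had 24 h compound exposure, 11-point 3-fold series from 10 uM final, ≤0.25% DMSO.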

Target C = assay: HiBiT protein abundance assay, Target C (K562 HiBiT knock-in cells); type: cell-based, human; settings: 24 hours
Outline: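 Protein abundance read by HiBiT lytic luminescence after 24 h compound exposure (37 °C) of knock-in K562 cells, 10000 cells/well in IMDM+1% FBS. Dosing: 10 points, 3-fold, top 10 μM final, ≤0.25% DMSO. Four-parameter logistic fit gave concentration reducing abundance to 50% of untreated control.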

IC50 (MYB mRNA) [nM] | IC50 (Target C) [nM] | SMILES | AC50 (MYB mRNA) [nM]
100 to 1000 | 1000 to 10000 | Cc1ccc2c(N3CCC(N(C)C)CC3)ccc(C(=O)Nc3cc(F)c4nc(C)cn4c3)c2n1 [Compound 215, 5-[4-(dimethylamino)piperidin-1-yl]-N-{8-fluoro-2-methylimidazo[1,2-a]pyridin-6-yl}-2-methylquinoline-8-carboxamide] | 100 to 1000
100 to 1000 | 1000 to 10000 | Cc1cn2cc(NC(=O)c3ccc(N4CCNCC4)c4ccnnc34)cc(C#N)c2n1 [Compound 167, N-{8-cyano-2-methylimidazo[1,2-a]pyridin-6-yl}-5-(piperazin-1-yl)cinnoline-8-carboxamide trifluoroacetic acid salt] | 100 to 1000
100 to 1000 | > 10000 | Cc1cn2cc(NC(=O)c3ccc(C4CCN(C)CC4)c4ccnnc34)cc(F)c2n1 [Compound 140] | 100 to 1000
< 100 | 1000 to 10000 | Cc1ccc2c(N3C[C@@H](C)N[C@@H](C)C3)ccc(C(=O)Nc3cc(F)c4nc(C)cn4c3)c2n1 [Compound 214, 5-[(3R,5S)-3,5-dimethylpiperazin-1-yl]-N-{8-fluoro-2-methylimidazo[1,2-a]pyridin-6-yl}-2-methylquinoline-8-carboxamide] | 100 to 1000
1000 to 10000 | > 10000 | CCc1cc(NC(=O)c2ccc(N3CCNCC3)c3ccnnc23)nn2cc(C)nc12 [Compound 168, N-{8-ethyl-2-methylimidazo[1,2-b]pyridazin-6-yl}-5-(piperazin-1-yl)cinnoline-8-carboxamide trifluoroacetic acid salt] | 1000 to 10000
100 to 1000 | > 10000 | CC[C@H]1CN(c2ccc(C(=O)Nc3cc(F)c4nc(C)cn4c3)c3nnccc23)CCN1 [Compound 152] | 100 to 1000
1000 to 10000 | > 10000 | CC(=O)c1cc(NC(=O)c2ccc(N3CCNCC3)c3ccnnc23)cn2cc(C)nc12 [Compound 163, N-{8-acetyl-2-methylimidazo[1,2-a]pyridin-6-yl}-5-(piperazin-1-yl)cinnoline-8-carboxamide] | 1000 to 10000
1000 to 10000 | 1000 to 10000 | CCNC1CCN(c2ccc(C(=O)Nc3cc(F)c4nc(C)sc4c3)c3nnccc23)CC1 [Compound 221, 5-[4-(ethylamino)piperidin-1-yl]-N-(4-fluoro-2-methyl-1,3-benzothiazol-6-yl)cinnoline-8-carboxamide] | 1000 to 10000
< 100 | 1000 to 10000 | Cc1cc2c(N3CCNCC3)ccc(C(=O)Nc3cc(F)c4nc(C)cn4c3)c2nn1 [Compound 159] | < 100
< 100 | 1000 to 10000 | Cc1cn2cc(NC(=O)c3ccc(N4CCN(C)[C@H](C)C4)c4ccnnc34)cc(F)c2n1 [Compound 149] | 100 to 1000
< 100 | 1000 to 10000 | COc1ccc2c(N3CCNCC3)ccc(C(=O)Nc3cc(F)c4nc(C)cn4c3)c2n1 [Compound 169, N-{8-fluoro-2-methylimidazo[1,2-a]pyridin-6-yl}-2-methoxy-5-(piperazin-1-yl)quinoline-8-carboxamide] | < 100
100 to 1000 | 1000 to 10000 | COCCOc1cc2c(N3CCNCC3)ccc(C(=O)Nc3cc(F)c4nc(C)cn4c3)c2nn1 [Compound 199, N-{8-fluoro-2-methylimidazo[1,2-a]pyridin-6-yl}-3-(2-methoxyethoxy)-5-(piperazin-1-yl)cinnoline-8-carboxamide] | < 100
> 10000 | > 10000 | Cc1cn2cc(NC(=O)c3ccc(N4CCNCC4)c4nnccc34)cc(F)c2n1 [Compound 166, N-(8-fluoro-2-methylimidazo[1,2-a]pyridin-6-yl)-8-(piperazin-1-yl)cinnoline-5-carboxamide 2,2,2-trifluoroacetate] | > 10000
< 100 | 100 to 1000 | COc1ncc2c(N3C[C@@H](C)N[C@@H](C)C3)ccc(C(=O)Nc3cn4cc(C)nc4c(OC)n3)c2n1 [Compound 378] | < 100
100 to 1000 | > 10000 | Cc1c(O)c(NC(=O)c2ccc(N3CCNCC3)c3ccnnc23)cc2cn(C)nc12 [Compound 181, N-(6-hydroxy-2,7-dimethylindazol-5-yl)-5-(piperazin-1-yl)cinnoline-8-carboxamide] | 1000 to 10000
< 100 | 1000 to 10000 | Cc1cn2cc(NC(=O)c3ccc(N4CCC5(CCN5)CC4)c4nccnc34)cc(F)c2n1 [Compound 189, 8-{1,7-diazaspiro[3.5]nonan-7-yl}-N-{8-fluoro-2-methylimidazo[1,2-a]pyridin-6-yl}quinoxaline-5-carboxamide] | 100 to 1000
100 to 1000 | 100 to 1000 | COc1cnc2c(N3CCC(N(C)C)CC3)ccc(C(=O)Nc3cc(F)c4nc(C)cn4c3)c2n1 [Compound 206, 8-[4-(dimethylamino)piperidin-1-yl]-N-{8-fluoro-2-methylimidazo[1,2-a]pyridin-6-yl}-3-methoxyquinoxaline-5-carboxamide; trifluoroacetic acid] | 100 to 1000
< 100 | 1000 to 10000 | Cc1cn2cc(NC(=O)c3ccc(N4CCN5CCC[C@@H]5C4)c4ccnnc34)cc(F)c2n1 [Compound 153] | < 100
